ChEMBL document CHEMBL1136971, “Nascent structure-activity relationship study of a diastereomeric series of kappa opioid receptor antagonists derived from CJ-15,208” (Bioorg Med Chem Lett, 2009)
Square brackets hold non-standard residues; d marks the D form. Peptide text beside a SMILES is read from it.

Experiments:
Homo sapiens = species on record: Homo sapiens; assay: Ratio of Ki for human cloned mu opioid receptor to Ki for human cloned kappa opioid receptor
[1] = molecular target: Delta-type opioid receptor (Homo sapiens, UniProt P41143); assay: Displacement of [3H]diprenorphine from human cloned delta receptor by cell based assay
Mu-type opioid receptor [2] = molecular target: T1, Mu-type opioid receptor (Homo sapiens, UniProt P35372); assay: Displacement of [3H]diprenorphine from human cloned mu receptor by cell based assay
[3] = molecular target: T2, Kappa-type opioid receptor (Homo sapiens, UniProt P41145); assay: Displacement of [3H]diprenorphine from human cloned kappa opioid receptor by cell based assay
Mu-type opioid receptor [4] = molecular target: T1, Mu-type opioid receptor; assay: Antagonist activity at human cloned mu opioid receptor assessed as inhibition of 100 nM loperamide-stimulated GTPgammaS binding by cell based assay; assay type: functional
[5] = molecular target: T2, Kappa-type opioid receptor; assay: Antagonist activity at human cloned kappa opioid receptor assessed as inhibition of 50 nM U50488H-stimulated GTPgammaS binding by cell based assay; assay type: functional
[6] = Antagonist activity at kappa opioid receptor in rabbit vas deferens assessed as reversal of asimadoline-suppressed electrically-stimulated twitch response; assay type: functional, tissue-based; conditions: Oryctolagus cuniculus
[7] = Binding affinity to delta opioid receptor in guinea pig brain membrane; assay type: cell membranes, Cavia porcellus
[8] = molecular target: Kappa-type opioid receptor (Cavia porcellus, UniProt P41144); assay: Binding affinity to kappa opioid receptor in guinea pig brain membrane; assay type: cell membranes
Mu-type opioid receptor [9] = molecular target: Mu-type opioid receptor (Cavia porcellus, UniProt P97266); assay: Binding affinity to mu opioid receptor in guinea pig brain membrane; assay type: cell membranes
Chain of Mu-type opioid receptor (Cavia porcellus, UniProt P97266) (P97266 whole entry): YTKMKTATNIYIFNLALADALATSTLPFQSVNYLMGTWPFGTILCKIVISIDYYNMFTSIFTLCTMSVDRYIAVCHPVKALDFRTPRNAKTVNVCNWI

Chain of Delta-type opioid receptor (P41143 whole entry): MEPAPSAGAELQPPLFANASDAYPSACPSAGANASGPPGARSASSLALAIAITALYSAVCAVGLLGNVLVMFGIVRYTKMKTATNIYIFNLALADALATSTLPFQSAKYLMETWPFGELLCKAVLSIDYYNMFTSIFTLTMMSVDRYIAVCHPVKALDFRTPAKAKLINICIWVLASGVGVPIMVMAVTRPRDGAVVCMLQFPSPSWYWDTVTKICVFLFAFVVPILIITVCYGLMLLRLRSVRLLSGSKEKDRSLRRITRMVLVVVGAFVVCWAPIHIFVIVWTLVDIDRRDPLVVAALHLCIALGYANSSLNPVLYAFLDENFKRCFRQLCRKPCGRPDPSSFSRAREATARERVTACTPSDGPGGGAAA
T1 sequence (P35372 whole entry): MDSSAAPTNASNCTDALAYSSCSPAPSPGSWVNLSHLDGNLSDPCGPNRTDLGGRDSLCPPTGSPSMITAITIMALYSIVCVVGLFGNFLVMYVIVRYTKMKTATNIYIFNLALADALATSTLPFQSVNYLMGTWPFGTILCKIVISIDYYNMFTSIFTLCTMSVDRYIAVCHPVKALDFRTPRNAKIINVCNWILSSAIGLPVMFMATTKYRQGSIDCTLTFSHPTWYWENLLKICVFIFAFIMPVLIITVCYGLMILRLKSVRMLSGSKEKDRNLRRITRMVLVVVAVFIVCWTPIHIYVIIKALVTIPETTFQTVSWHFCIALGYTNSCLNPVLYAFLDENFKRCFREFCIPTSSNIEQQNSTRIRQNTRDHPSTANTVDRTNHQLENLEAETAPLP
T2 sequence (P41145 whole entry): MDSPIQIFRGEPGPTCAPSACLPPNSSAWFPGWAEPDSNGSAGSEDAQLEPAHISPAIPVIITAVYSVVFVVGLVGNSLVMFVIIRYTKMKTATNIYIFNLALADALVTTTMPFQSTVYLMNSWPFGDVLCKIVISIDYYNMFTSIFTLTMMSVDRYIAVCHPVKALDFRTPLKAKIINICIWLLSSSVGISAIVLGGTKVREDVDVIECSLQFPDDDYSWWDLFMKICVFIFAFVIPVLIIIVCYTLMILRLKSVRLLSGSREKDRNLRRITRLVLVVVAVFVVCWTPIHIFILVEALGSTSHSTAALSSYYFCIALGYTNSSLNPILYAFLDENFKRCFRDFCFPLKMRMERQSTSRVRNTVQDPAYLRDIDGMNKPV
Chain of Kappa-type opioid receptor (Cavia porcellus, UniProt P41144) (P41144 whole entry): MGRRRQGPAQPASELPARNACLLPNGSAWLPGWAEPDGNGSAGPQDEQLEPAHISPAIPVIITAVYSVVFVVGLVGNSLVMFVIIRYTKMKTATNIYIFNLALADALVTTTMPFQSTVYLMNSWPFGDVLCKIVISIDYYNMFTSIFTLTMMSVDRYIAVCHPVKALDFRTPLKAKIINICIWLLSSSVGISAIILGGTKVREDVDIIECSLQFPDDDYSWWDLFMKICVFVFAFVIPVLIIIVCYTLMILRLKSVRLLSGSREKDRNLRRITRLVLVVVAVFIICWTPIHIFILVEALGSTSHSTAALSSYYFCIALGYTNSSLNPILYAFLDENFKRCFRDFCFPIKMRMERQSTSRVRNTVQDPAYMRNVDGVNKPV

Work on `O=C1N[C@H](Cc2c[nH]c3ccccc23)C(=O)N[C@@H](Cc2ccccc2)C(=O)N2CCC[C@@H]2C(=O)N[C@H]1Cc1cccc(O)c1` yielded a Ratio Ki (Homo sapiens) of 2, a Ki [1] of 3400 nM and a Ki (Mu-type opioid receptor [2]) of 40 nM. It also gave a Ki [3] of 20 nM.
In the case of `O=C1N[C@H](Cc2c[nH]c3ccccc23)C(=O)N[C@@H](Cc2ccccc2)C(=O)N2CCC[C@@H]2C(=O)N[C@H]1Cc1ccccc1` (cyclo(F[dP]F[dW])), the Ratio Ki (Homo sapiens) is reported as 7.9, the IC50 (Mu-type opioid receptor [4]) is reported as 21 nM and the Ki [1] is reported as greater than 1000 nM. For the same compound, the IC50 [5] was 140 nM, the Ki (Mu-type opioid receptor [2]) was 30 nM and the Ki [3] was 3.8 nM.
For `COc1ccc(C[C@@H]2NC(=O)[C@@H](Cc3c[nH]c4ccccc34)NC(=O)[C@H](Cc3ccccc3)NC(=O)[C@H]3CCCN3C2=O)cc1`, the Ratio Ki (Homo sapiens) was 2.6, the Ki [1] was greater than 1000 nM and the Ki (Mu-type opioid receptor [2]) was 170 nM. It also gave a Ki [3] of 66 nM.
Compound `O=C1N[C@H](Cc2c[nH]c3ccccc23)C(=O)N[C@@H](Cc2ccc(F)cc2)C(=O)N2CCC[C@@H]2C(=O)N[C@H]1Cc1ccccc1` has a Ratio Ki (Homo sapiens) of 7.5, a Ki [1] greater than 1000 nM and a Ki (Mu-type opioid receptor [2]) of 210 nM. The Ki [3] was 28 nM.
In the case of `COc1ccc(C[C@@H]2NC(=O)[C@H]3CCCN3C(=O)[C@H](Cc3ccccc3)NC(=O)[C@@H](Cc3c[nH]c4ccccc34)NC2=O)cc1`, the Ratio Ki (Homo sapiens) is reported as 3.1, the Ki [1] is reported as greater than 1000 nM and the Ki (Mu-type opioid receptor [2]) is reported as 43 nM. It also gave a Ki [3] of 14 nM.
With `C[C@@H]1NC(=O)[C@H]2CCCN2C(=O)[C@H](Cc2ccccc2)NC(=O)[C@@H](Cc2c[nH]c3ccccc23)NC1=O` (cyclo(A[dW]F[dP])) the Ratio Ki (Homo sapiens) was 1.7, the Ki [1] was greater than 1000 nM and the Ki (Mu-type opioid receptor [2]) was 2200 nM. For the same compound, the Ki [3] was 1300 nM.
Work on `CC(=O)N1CCC[C@@H]1C(=O)N[C@@H](Cc1ccccc1)C(=O)N[C@@H](Cc1c[nH]c2ccccc12)C(=O)N[C@@H](Cc1ccccc1)C(N)=O` yielded a Ki [1] greater than 1000 nM, a Ki (Mu-type opioid receptor [2]) greater than 1000 nM and a Ki [3] greater than 1000 nM.
Compound `C[C@H]1NC(=O)[C@H](Cc2ccccc2)NC(=O)[C@H]2CCCN2C(=O)[C@H](Cc2ccccc2)NC1=O` has a Ki [1] greater than 1000 nM, a Ki (Mu-type opioid receptor [2]) greater than 1000 nM and a Ki [3] greater than 1000 nM.
`CC(=O)N[C@@H](Cc1ccccc1)C(=O)N1CCC[C@@H]1C(=O)N[C@@H](Cc1ccccc1)C(=O)N[C@@H](Cc1c[nH]c2ccccc12)C(N)=O` showed a Ki [1] greater than 1000 nM, a Ki (Mu-type opioid receptor [2]) greater than 1000 nM and a Ki [3] greater than 1000 nM.
`O=C1N[C@H](Cc2c[nH]c3ccccc23)C(=O)N[C@@H](Cc2cccc(O)c2)C(=O)N2CCC[C@@H]2C(=O)N[C@H]1Cc1ccccc1` showed a Ratio Ki (Homo sapiens) of 0.47, a Ki [1] of 670 nM and a Ki (Mu-type opioid receptor [2]) of 37 nM. For the same compound, the Ki [3] was 78 nM.
`O=C1N[C@H](Cc2c[nH]c3ccccc23)C(=O)N[C@@H](Cc2ccc(O)cc2)C(=O)N2CCC[C@@H]2C(=O)N[C@H]1Cc1ccccc1` showed a Ki [1] greater than 1000 nM and a Ki [3] of 220 nM.
Compound `O=C1N[C@H](Cc2c[nH]c3ccccc23)C(=O)N[C@@H](Cc2ccccc2)C(=O)N2CCC[C@@H]2C(=O)N[C@H]1Cc1ccc(F)cc1` has a Ratio Ki (Homo sapiens) of 2.3, a Ki [1] greater than 1000 nM and a Ki (Mu-type opioid receptor [2]) of 48 nM. The Ki [3] was 21 nM.
`O=C1N[C@H](Cc2c[nH]c3ccccc23)C(=O)N[C@@H](Cc2ccccc2)C(=O)N2CCC[C@@H]2C(=O)N[C@H]1Cc1ccc(O)cc1` gave a Ratio Ki (Homo sapiens) of 0.85, a Ki [1] greater than 1000 nM and a Ki (Mu-type opioid receptor [2]) of 120 nM. For the same compound, the Ki [3] was 140 nM.
With `CC(=O)N[C@@H](Cc1ccccc1)C(=O)N1CCC[C@@H]1C(=O)N[C@@H](Cc1ccccc1)C(=O)N[C@H](Cc1c[nH]c2ccccc12)C(N)=O` the Ki [1] was greater than 1000 nM, the Ki (Mu-type opioid receptor [2]) was greater than 1000 nM and the Ki [3] was greater than 1000 nM.
For `C[C@@H]1NC(=O)[C@@H](Cc2c[nH]c3ccccc23)NC(=O)[C@H](Cc2ccccc2)NC(=O)[C@H]2CCCN2C1=O` (cyclo(A[dP]F[dW])), the Ratio Ki (Homo sapiens) was 4.2, the IC50 (Mu-type opioid receptor [4]) was 48 nM and the Ki [1] was greater than 1000 nM. For the same compound, the IC50 [5] was 5 nM, the Ki (Mu-type opioid receptor [2]) was 22 nM and the Ki [3] was 5.2 nM.
Work on `CC(=O)N[C@H](Cc1c[nH]c2ccccc12)C(=O)N[C@@H](Cc1ccccc1)C(=O)N1CCC[C@@H]1C(=O)N[C@@H](Cc1ccccc1)C(N)=O` yielded a Ki [1] greater than 1000 nM, a Ki (Mu-type opioid receptor [2]) greater than 1000 nM and a Ki [3] greater than 1000 nM.
Work on `CC(=O)n1cc(C[C@H](N)C(=O)N[C@@H](Cc2ccccc2)C(=O)N2CCC[C@@H]2C(=O)N[C@@H](Cc2ccccc2)C(N)=O)c2ccccc21` yielded a Ki [1] greater than 1000 nM, a Ki (Mu-type opioid receptor [2]) greater than 1000 nM and a Ki [3] greater than 1000 nM.
Compound `CC(=O)N[C@@H](Cc1ccccc1)C(=O)N[C@H](Cc1c[nH]c2ccccc12)C(=O)N[C@@H](Cc1ccccc1)C(=O)N1CCC[C@@H]1C(N)=O` has a Ki [1] greater than 1000 nM, a Ki (Mu-type opioid receptor [2]) of 360 nM and a Ki [3] greater than 1000 nM.
With `O=C1N[C@@H](Cc2ccccc2)C(=O)N2CCC[C@@H]2C(=O)N[C@@H](Cc2ccccc2)C(=O)N[C@H]1Cc1c[nH]c2ccccc12` (cyclo(FWF[dP])) the EC50 [6] was 1300 nM, the Ratio Ki (Homo sapiens) was 4.5 and the IC50 (Mu-type opioid receptor [4]) was 25 nM. It also gave a Ki [1] of 2000 nM, an IC50 [5] of 440 nM and a Ki (Mu-type opioid receptor [2]) of 130 nM. For the same compound, the IC50 [7] was 2600 nM, the Ki [3] was 29 nM and the IC50 [8] was 47 nM. It also gave an IC50 (Mu-type opioid receptor [9]) of 260 nM.
Compound `O=C1N[C@H](Cc2c[nH]c3ccccc23)C(=O)NCC(=O)N2CCC[C@@H]2C(=O)N[C@H]1Cc1ccccc1` has a Ratio Ki (Homo sapiens) of 2.8, a Ki [1] greater than 1000 nM and a Ki (Mu-type opioid receptor [2]) of 770 nM. It also gave a Ki [3] of 270 nM.
In the case of `CC(=O)N[C@@H](Cc1ccccc1)C(=O)N[C@@H](Cc1c[nH]c2ccccc12)C(=O)N[C@@H](Cc1ccccc1)C(=O)N1CCC[C@@H]1C(N)=O`, the Ki [1] is reported as greater than 1000 nM, the Ki (Mu-type opioid receptor [2]) is reported as greater than 1000 nM and the Ki [3] is reported as greater than 1000 nM.
`CC(=O)N1CCC[C@@H]1C(=O)N[C@@H](Cc1ccccc1)C(=O)N[C@H](Cc1c[nH]c2ccccc12)C(=O)N[C@@H](Cc1ccccc1)C(N)=O` showed a Ki [1] greater than 1000 nM, a Ki (Mu-type opioid receptor [2]) of 340 nM and a Ki [3] greater than 1000 nM.
